Source: patent US20120004405A1, “COMPOUNDS HAVING ACTIVITY IN CORRECTING MUTANT CFTR CELLULAR PROCESSING” (priority 2008, published 2012)
Entries after “also recorded” stand apart in the source; their conditions may differ.

Assays:
ΔF508-CFTR [1] = molecular target: T1, ΔF508-CFTR (Homo sapiens, UniProt P13569, DEL508-508); assay: Iodide efflux from ΔF508-CFTR epithelial cells; format: cell-based; conditions: for iodide efflux from ΔF508-CFTR epithelial cells: iodide-loaded cells, compound added at time point 0, iodide sensitive electrode
T1 construct: Human epithelial cells containing wildtype (A) or ΔF508-CFTR (B); endogenous in cells; host or cells: CFBE14o- human epithelial cells (provided by Dr. D. C. Gruenert)
Description: Iodide efflux experiments were performed as described. Briefly, Cells (80-90% confluent) were incubated for 1 h in a loading buffer containing 136 mM NaI, 3 mM KNO3, 2 mM Ca(NO3)2, 11 mM glucose, and 20 mM Hepes, adjusted to pH 7.4 with NaOH. To remove extracellular iodide, cells were thoroughly washed with efflux buffer (136 mM NaNO3 replacing 136 mM NaI in the loading buffer) and then equilibrated in 2.5 ml efflux buffer for 1 min. The efflux buffer was changed at 1 min intervals over the duration of the experiment. Four minutes after anion substitution, cells were exposed to compound 1D. The amount of iodide in each 2.5 ml sample of efflux buffer was determined using an iodide-selective electrode (HNU Systems Ltd, Warrington, UK). Cells were loaded and experiments performed at room temperature.

wildtype CFTR = molecular target: T2, wildtype CFTR (Homo sapiens, UniProt P13569); assay: Western blotting of cell surface expressed CFTR, wildtype epithelial cells; format: cell-based; conditions: increasing concentration of compound
T2 construct: Human epithelial cells containing wildtype CFTR (16HBE14o-); endogenous in cells; host or cells: 16HBE14o- human epithelial cells (provided by Dr. D. C. Gruenert)
Description: (§1) Human epithelial cells containing wildtype CFTR (16HBE14o-) and the mutant cell line CFBE14o- were kindly provided by Dr. D. C. Gruenert. They were grown in suspension culture in Dulbeccós medium supplemented with streptomycin/penicillin (100 units of each/ml) and 10% foetal calf serum.
(§2) The cell pellets were solubilized by vortexing in buffer (Tris-HCl 0.06 M; 2% SDS, 10% glycerol, 0.1M dithiothreitol, 0.1% bromophenol-blue and the protease inhibitor cocktail, pH 6.8). Following centrifugation (2 min, 8.000 g) samples of the supernatant were separated on 10% poly-acrylamide slabgels. Proteins were subsequently electroblotted onto nitrocellulose paper in 0.025 M Tris, 0.192 M glycine, 20% methanol. The blots were incubated at 4° C. with 0.02M Tris-HCl, 0.15M NaCl, 0.1% Tween20, pH7.5 followed by overnight incubation at 4° C. with a 1:500 dilution of primary anti-CFTR antibody in 0.02M Tris-HCl, 0.15M NaCl, 0.1% Tween20, pH7.5. Blots were washed three times, incubated with peroxidase-conjugated anti-rabbit IgG for 2 h, and washed four times. Peroxidase activity was detected with […] reagent (ECL kit; Amersham, Braunschweig, Germany) on X-ray film.

[2] = test system: wildtype HBE14o- cells (normal CFTR); assay: Transepithelial resistance of wildtype HBE14o- epithelial cells; format: cell-based, human
CFTR = molecular target: T3, CFTR (Mus musculus, UniProt P26361); assay: Hyaluronan export through CFTR in a mouse fibroblasts cell line; format: cell-based
T3 construct: endogenous in cells
Description: (§3) The cells were incubated for 24 hours at 37° C., the media were replaced with fresh media and after additional 24 hours aliquots (5 and 20 μl) of the culture medium were used for measurement of the hyaluronan concentration in the cell culture medium by an ELISA. The wells of a 96 well Covalink-NH-microtiter plate (NUNC) were coated with 100 μl of a mixture of […] of hyaluronan (Healon®), 9.2 μg/ml of N-Hydroxysuccin-imide-3-sulfonic acid and 615 μl/ml of 1-ethyl-3-(3-dimethylaminopropyl)-carbodiimide for 2 hours at room temperature and overnight at 4° C. The wells were washed three times with 2 M NaCl, 41 mM MgSO4, 0.05% Tween-20 in 50 mM phosphate buffered saline pH 7.2 (buffer A) and once with 2 M NaCl, 41 mM MgSO4, in phosphate buffered saline pH 7.2. Additional binding sites were blocked by incubation with 300 μl of 0.5% bovine serum albumin in phosphate buffered saline for 30 min at 37° C. Calibration of the assay was performed with standard concentrations of hyaluronan ranging from 15 ng/ml to 6000 ng/ml in equal volumes of culture medium as used for measurement of the cellular supernatants. […] The adsorption was read at 490 nm. The concentrations in the samples were calculated from a logarithmic regression curve of the hyaluronan standard solutions.

hyaluronan exporter MRP5 = molecular target: T4, hyaluronan exporter MRP5 (Homo sapiens, UniProt O15440); assay: Determination of hyaluronan export from human fibroblasts (ELISA of culture medium); format: cell-based; conditions: incubated two days with increasing concentrations; hyaluronan in culture supernatant
T4 construct: tested on human fibroblasts cultures for their influence on hyaluronan exporter MRP5; endogenous in cells; host or cells: human fibroblast cultures
Description: as §3

nasal epithelium = assay: Transepithelial nasal resistance measured on the inventor; format: in vivo; conditions: human
Description: The effect of compound 1D was evaluated on the inventor of the present application by measurement of the transepithelial nasal resistance. This is a standard protocol for testing pharmaceutically active compounds on humans, (http://central.igc.gulbenkian.pt/cftr/vr/e/schuler_basic_protocol_for_measurement_of_transepithelial_nasal_potential_difference.pdf) (see also the results of FIG. 9).
The nasal epithelium was equilibrated with isotonic (0.9%) NaCl, 2 mM CaCl2. […] To determine the maximal possible potential differences in this experiment, the solution was changed to isotonic NaCl, 2 mM CaCl2 containing 10 μM amiloride that is known to close Na+ channels. […] After equilibration, the solution was changed to low salt with 0.09% NaCl, 0.2 mM CaCl2 containing 10 μM isoprenalol.

[3] = test system: mutant CFBE14o- cells (ΔF508-CFTR); assay: Transepithelial resistance of mutant CFBE14o- epithelial cells; format: cell-based, human
Description: as §1
A cell monolayer on a thin filter membrane (growth area, 4.2 cm2; pore diameter, 0.4 μm; thickness, 20 μm; Falcon, Heidelberg, Germany) served as a test barrier for the invasive capabilities of malignant cells. When confluent, these cells from a tight epithelial sheet with a high trans-epithelial electrical resistance (TEER), which was measured continuously using a STX-2 electrode (WPI, Sarasota, USA). Permeabilization of the epithelial cell layer (MDCK-C7 cells) due to the invasive activity of the melanoma cells can be determined by trans-epithelial electrical resistance (TEER) measurements, as previously reported [24;25].

[4] = Alamarblue cytotoxicity assay; format: cell-based; conditions: up to concentrations of 400 μM; data not shown
Description: In a preferred embodiment, the present invention relates to compounds 1B, 1C, 1D 1F and 1G. […] Compound 1D is particularly preferred.
The cytotoxicity of the drugs was measured as described.

ΔF508-CFTR [5] = molecular target: T1, ΔF508-CFTR; assay: Western blotting of cell surface expressed CFTR, ΔF508-CFTR epithelial cells; format: cell-based
Description: as §1, §2

T1 sequence (P13569 with tags, fused parts or gaps DEL508-508): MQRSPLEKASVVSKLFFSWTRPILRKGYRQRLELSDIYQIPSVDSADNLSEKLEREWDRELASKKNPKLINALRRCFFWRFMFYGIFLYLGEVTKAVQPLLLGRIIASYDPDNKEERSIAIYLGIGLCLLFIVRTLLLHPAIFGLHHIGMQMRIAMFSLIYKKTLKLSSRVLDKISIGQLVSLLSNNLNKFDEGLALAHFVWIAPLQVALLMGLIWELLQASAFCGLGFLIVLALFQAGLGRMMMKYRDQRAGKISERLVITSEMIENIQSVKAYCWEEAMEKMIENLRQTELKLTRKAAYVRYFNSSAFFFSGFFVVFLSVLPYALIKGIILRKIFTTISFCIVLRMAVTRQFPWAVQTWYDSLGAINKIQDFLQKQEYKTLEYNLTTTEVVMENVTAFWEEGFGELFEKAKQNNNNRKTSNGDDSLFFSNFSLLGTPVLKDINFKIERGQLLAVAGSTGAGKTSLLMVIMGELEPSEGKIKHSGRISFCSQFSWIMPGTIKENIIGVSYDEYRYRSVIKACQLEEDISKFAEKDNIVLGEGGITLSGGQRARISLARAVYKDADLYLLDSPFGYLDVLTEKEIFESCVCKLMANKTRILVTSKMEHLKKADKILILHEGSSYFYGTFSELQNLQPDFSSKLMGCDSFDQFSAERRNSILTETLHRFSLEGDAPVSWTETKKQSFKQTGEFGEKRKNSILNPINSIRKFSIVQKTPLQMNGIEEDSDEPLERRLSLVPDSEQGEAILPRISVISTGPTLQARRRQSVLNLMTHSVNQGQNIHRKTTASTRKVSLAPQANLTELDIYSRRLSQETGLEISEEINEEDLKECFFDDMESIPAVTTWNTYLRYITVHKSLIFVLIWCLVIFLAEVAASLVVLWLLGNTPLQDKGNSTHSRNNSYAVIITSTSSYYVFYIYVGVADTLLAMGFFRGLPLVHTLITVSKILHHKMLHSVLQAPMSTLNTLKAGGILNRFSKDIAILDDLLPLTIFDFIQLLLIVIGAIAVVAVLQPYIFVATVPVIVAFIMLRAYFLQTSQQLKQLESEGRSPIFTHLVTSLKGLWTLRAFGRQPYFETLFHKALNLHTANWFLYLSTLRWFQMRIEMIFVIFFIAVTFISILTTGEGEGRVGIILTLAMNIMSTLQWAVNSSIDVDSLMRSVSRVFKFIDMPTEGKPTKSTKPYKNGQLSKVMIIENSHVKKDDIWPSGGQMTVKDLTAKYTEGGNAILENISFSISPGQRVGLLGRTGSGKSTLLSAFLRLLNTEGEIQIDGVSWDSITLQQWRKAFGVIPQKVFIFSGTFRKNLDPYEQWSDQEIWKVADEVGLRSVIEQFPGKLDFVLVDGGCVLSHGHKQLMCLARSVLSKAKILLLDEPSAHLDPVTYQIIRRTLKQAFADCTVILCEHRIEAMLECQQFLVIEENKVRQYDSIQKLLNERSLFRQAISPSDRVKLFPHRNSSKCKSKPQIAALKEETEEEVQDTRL
T4 sequence (O15440 whole entry): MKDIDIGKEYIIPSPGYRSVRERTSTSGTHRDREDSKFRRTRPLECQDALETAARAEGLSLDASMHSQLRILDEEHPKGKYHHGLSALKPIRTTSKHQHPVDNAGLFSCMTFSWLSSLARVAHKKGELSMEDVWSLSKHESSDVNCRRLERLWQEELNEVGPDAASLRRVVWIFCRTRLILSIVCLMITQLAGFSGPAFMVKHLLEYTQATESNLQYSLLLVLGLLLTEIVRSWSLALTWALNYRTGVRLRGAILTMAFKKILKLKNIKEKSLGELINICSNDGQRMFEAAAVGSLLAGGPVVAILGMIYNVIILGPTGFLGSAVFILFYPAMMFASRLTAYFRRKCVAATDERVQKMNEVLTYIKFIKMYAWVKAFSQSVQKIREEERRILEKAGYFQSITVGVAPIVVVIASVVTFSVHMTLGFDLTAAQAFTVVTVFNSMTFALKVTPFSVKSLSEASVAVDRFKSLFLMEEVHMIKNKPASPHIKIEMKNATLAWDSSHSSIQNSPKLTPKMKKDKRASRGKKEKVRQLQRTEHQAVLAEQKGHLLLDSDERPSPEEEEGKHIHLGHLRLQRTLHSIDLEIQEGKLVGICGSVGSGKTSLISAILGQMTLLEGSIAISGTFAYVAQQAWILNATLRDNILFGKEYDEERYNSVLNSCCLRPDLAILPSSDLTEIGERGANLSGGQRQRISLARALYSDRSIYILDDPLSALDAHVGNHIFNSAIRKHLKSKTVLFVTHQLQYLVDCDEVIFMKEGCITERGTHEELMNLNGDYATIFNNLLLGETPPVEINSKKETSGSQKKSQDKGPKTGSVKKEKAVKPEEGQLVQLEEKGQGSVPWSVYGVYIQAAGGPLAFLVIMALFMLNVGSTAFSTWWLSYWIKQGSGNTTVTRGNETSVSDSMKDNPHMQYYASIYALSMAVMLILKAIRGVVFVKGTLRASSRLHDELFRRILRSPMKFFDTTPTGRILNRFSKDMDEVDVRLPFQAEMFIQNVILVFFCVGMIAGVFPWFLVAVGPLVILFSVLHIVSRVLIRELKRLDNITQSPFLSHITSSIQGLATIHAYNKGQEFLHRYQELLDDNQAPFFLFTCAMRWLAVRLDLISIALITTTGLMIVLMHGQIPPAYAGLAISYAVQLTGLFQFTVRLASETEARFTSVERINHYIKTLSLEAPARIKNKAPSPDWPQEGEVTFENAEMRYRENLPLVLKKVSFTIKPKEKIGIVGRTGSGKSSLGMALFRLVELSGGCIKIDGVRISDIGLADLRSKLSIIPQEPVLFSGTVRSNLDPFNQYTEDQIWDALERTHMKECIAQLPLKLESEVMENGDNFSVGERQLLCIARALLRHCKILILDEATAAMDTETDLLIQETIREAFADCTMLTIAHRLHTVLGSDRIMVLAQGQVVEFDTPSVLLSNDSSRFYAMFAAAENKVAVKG
T3 sequence (P26361 whole entry): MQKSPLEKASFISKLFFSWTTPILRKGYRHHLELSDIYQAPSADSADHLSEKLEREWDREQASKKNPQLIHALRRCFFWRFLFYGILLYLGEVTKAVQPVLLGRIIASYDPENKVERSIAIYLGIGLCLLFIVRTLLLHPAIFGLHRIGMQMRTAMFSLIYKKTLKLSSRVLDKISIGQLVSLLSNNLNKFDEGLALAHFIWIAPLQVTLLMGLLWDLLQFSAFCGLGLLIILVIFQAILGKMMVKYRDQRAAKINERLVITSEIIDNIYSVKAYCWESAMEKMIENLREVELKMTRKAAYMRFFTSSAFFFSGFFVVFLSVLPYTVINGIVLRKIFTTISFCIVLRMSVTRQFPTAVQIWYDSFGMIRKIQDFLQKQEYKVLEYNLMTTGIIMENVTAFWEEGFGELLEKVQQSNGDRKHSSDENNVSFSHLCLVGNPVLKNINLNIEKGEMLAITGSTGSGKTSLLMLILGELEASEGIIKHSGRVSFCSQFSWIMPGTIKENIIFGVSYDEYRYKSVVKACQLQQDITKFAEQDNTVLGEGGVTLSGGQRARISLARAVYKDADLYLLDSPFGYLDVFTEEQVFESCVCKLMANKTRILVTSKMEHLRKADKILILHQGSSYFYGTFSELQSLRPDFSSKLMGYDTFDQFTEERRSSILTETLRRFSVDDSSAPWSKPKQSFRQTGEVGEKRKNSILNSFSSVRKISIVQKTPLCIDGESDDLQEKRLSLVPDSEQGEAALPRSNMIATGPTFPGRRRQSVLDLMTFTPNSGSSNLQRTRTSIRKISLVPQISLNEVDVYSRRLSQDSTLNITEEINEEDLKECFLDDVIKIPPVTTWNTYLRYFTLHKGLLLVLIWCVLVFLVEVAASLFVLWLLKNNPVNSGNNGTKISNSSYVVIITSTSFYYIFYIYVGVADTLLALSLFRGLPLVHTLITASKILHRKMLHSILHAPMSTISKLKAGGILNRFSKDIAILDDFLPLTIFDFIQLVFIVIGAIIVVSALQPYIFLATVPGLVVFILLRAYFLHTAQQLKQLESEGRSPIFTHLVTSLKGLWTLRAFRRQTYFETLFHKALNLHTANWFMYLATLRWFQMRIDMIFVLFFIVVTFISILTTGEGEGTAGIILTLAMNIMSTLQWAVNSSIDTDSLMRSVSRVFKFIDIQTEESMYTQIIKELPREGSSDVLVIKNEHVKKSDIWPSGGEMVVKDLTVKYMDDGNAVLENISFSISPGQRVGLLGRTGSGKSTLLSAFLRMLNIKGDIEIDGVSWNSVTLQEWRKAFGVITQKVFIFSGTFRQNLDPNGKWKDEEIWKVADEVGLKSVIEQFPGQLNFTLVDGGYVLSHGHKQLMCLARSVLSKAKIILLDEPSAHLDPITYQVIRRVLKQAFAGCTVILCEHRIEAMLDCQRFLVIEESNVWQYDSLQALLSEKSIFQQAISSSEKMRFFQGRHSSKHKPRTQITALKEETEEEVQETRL

Compound: O=C(O)c1ccc(/C=C2\SC(=S)N(c3cccc(C(F)(F)F)c3)C2=O)cc1 [CFTR172, reference compound]
- effect on D4 activation of iodide efflux through F508-CFTR (ΔF508-CFTR [1]; simultaneous addition with D4): reduces the activation

Compound: CC(=O)Nc1c(O)cccc1Oc1ccccc1C(=O)O [Compound 1B, 2-(2-acetamido-3-hydroxyphenoxy)benzoic acid]
- iodide efflux from ΔF508-CFTR epithelial cells (ΔF508-CFTR [1]): stimulates iodide efflux

Compound: CC(=O)Nc1c(O)cc(O)cc1Oc1ccc(N)cc1C(=O)O [Compound 1D, 2-(2-acetamido-3,5-dihydroxyphenoxy)-5-aminobenzoic acid]
- expression of wildtype CFTR on the cell surface (Western blotting) (wildtype CFTR): slightly decreased
- transepithelial resistance of epithelial cells containing normal CFTR, immediate effect ([2]; FIG. 10): drops immediately
- TER of normal cells over a period of 90 hours ([2]; FIG. 12): reduce the TER
- hyaluronan export through CFTR (CFTR): activated
- activation of hyaluronan export from human fibroblasts (hyaluronan exporter MRP5): most active; also recorded: most activating
- transepithelial nasal resistance (nasal epithelium; 100 μM in isotonic NaCl, 2 mM CaCl2, after a transient increase): decreased below the equilibrating solution
- reversibility of the effect on transepithelial nasal resistance (nasal epithelium; wash out): reversible
- transepithelial resistance of ΔF508-CFTR epithelial cells over a longer time period ([3]; 100 μM): increase in transepithelial resistance; also recorded: long lasting rescue of ΔF508-CFTR
- transepithelial resistance of epithelial cells containing F508-CFTR ([3]; FIG. 10, compared to 8-Bromo-cAMP and control): resistance increases
- TER of F508-CFTR cells over a period of 90 hours ([3]; FIG. 12, versus control without any treatment): drops below the control
- toxicity (Alamarblue assay) [4]: not toxic
- concentration at which increase of membrane expression on ΔF508-CFTR epithelial cells was observed (ΔF508-CFTR [5]; Western blotting): 100 µM
- expression of ΔF508-CFTR on the cell surface / plasma membrane (Western blotting) (ΔF508-CFTR [5]; human epithelial cells, increasing concentration of compound): recruited to the plasma membrane; also recorded: enhanced; also recorded: restored plasma membrane expression
- iodide efflux from ΔF508-CFTR epithelial cells (ΔF508-CFTR [1]): stimulated a sudden burst of iodide efflux
- iodide efflux from ΔF508-CFTR epithelial cells (ΔF508-CFTR [1]; listed as D4): channels immediately open

Compound: N=C(N)NC(=O)c1nc(Cl)c(N)nc1N [amiloride, reference compound]
- transepithelial nasal resistance (nasal epithelium; 10 μM in isotonic NaCl, 2 mM CaCl2): increased to a maximal valued

Compound: CC(C)NCC(O)c1ccc(O)c(O)c1 (stereo not shown) [isoprenalol, reference compound]
- transepithelial nasal resistance (nasal epithelium; 10 μM in low salt 0.09% NaCl, 0.2 mM CaCl2): maximal drop of the transepithelial resistance
